# Measurements taken from paper PMC5025780, “Copper(II) ions affect the gating dynamics of the 20S proteasome: a molecular and in cell study” (Scientific Reports, 2016).
# Where two headings read alike, the source gives them in different places.
# How the values were obtained:
# [1] = molecular target: T1, human 20S proteasome (hCP), C-L activity; assay: C-L peptidase activity of isolated hCP (fluorogenic substrate); format: biochemical
# T1 construct: purchased Boston Biochem (Cambridge, MA, USA)
# Text: Purified human 20S proteasome (hCP) and the fluorogenic substrates Suc-LLVY-AMC, Z-Leu-Leu-Glu-AMC, and Ac-Arg-Leu-Arg-AMC used to assay the ChT-L, T-L, and C-L activity, were from Boston Biochem (Cambridge, MA, USA). Bathocuproinedisulfonic acid disodium salt (BCS), dithiothreitol (DTT), N-Acetyl-L-Cysteine (NAC), Sodium dodecylsulphate (SDS) as well as CuCl2 and Zn(NO3)2 were from Sigma-Aldrich (St. Louis, MO). Proteasome inhibitors Epoxomicin were obtained from Enzo Life Science. Wild type 20S proteasome isolated from Saccharomices Cerevisiae (yCP) and a mutant (α3ΔN) where nine residues of the N-terminal tail of the α3 subunit are deleted to provide a permanently open-gate conformations were isolated as described elsewhere.
# Peptidase activities of hCP (2 nM) were assayed on in 50 μL Tris 25 mM pH 7.6, at 37 °C with 100 μM of the fluorogenic substrate. hCP was incubated with Cu(II)/Zn(II) ions for 1 h prior activity assays. The fluorescence signal activated by peptide cleavage was recorded at 440 nm (excitation at 360 nm) for 45 min, by a Varioskan (Thermo^©) plate reader in 384 multiwell plates. Three replicates were performed for each data point. Data were reported as normalized percentages of residual activity. The potency (IC50) was calculated from the value of the dose response plot corresponding at a fractional activity of 50%. The IC50 values were determined using a non linear fit of experimental data in according to equation: […]
# The midpoint of this function occurs at a fractional activity value of 50%, corresponding to half inhibition of the target enzyme. The IC50 values and their standard errors were deduced from the fitting. To evaluate if copper is a reversible PI, we measured the ChT-L activity of hCP incubated with Cu(II) (2.20 μM) before and after addition of an equimolar amount of EDTA.
# [2] = system: T2, 20S proteasome (CP) gate; assay: Steady-state Trp fluorescence of SDS-activated 20S proteasome (gating); set-up: species or system human; conditions: 100 μM Cu(II) added to SDS-activated CP (0.018% SDS), pH 7.6, 37 °C
# T2 construct: purchased Boston Biochem (Cambridge, MA, USA)
# Experimental: In particular, fluorescence spectra of the isolated 20S proteasome may be deconvoluted into two components. The first of these bands is ascribable to Trp13(α6) residues which are located at the entrance of the channel. Therefore, a red-shift of the first component may be associated to a gate opening of the 20S proteasome. Here, we exploited this effect to investigate the role of Cu(II) ions in CP gate closing. […] Next, we recorded the fluorescence spectra obtained immediately (t = 0 min) and after 30 min the addition of 100 μM Cu(II) ions to the SDS-activated CP and deconvoluted the fluorescence spectra into the contributions from each type of tryptophan as described in the experimental section (see Fig. 3 panel A). […]
# Fluorescence emission spectra of purified 20S proteasomes (1.5 μM) in a MOPS buffer 10 mM, 0.018% SDS, pH 7.6 were recorded at 37 °C over time prior to and following addition of Cu(II) (100 μM). […] The final fluorescence spectra represent averages of at least three measurements. […] Fluorescence spectra were recorded on a Horiba Fluoromax-4 spectrofluorimeter from 300 to 400 nm in 1-nm steps, at an excitation wavelength λexc = 295 nm. Deconvolution of fluorescence spectra into the log-normal components was performed according to the algorithms integrated into the web-based toolkit PFAST (http://pfast.phys.edu/)[43]. […]
structure (smiles),measurement,setting,value
"[Cl][Cu][Cl] [Cu(II), CuCl2]",IC50,"[1]; hCP 2 nM, 1 h preincubation with ions, Tris 25 mM pH 7.6, 37 °C, no SDS, read-out: IC50 C-L",1010 nM
same,IC50,"[1]; in the presence of 0.018% SDS, other conditions unmodified, read-out: IC50 C-L, Cu(II) + SDS",1830 nM
same,Red shift of first Trp fluorescence component (gate opening),[2],decreased rate of red-shift
